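Cells were grown in 96-well plates and exposed to each compound for 48 hours at five concentrations; endpoints were interpolated linearly between bracketing concentrations, or set to the highest concentration if not reached. Here, GI50 denotes the concentration required for 50% inhibition of growth.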 The source made the active and inactive calls. No stated cut-off is given here; in the data, active = GI50 up to about 1.1 µM and inactive = higher.
Tests used:
Assay in all cases: NCI-60 cell line screen, 48 h
[1] = test system: EKVX
[2] = test system: CAKI-1
[3] = test system: HOP-62
[4] = test system: IGROV-1
[5] = test system: NCI/ADR-RES
[6] = test system: SF-268
[7] = test system: DU-145
[8] = test system: COLO 205
[9] = test system: NCI-H460
[10] = test system: MOLT-4
[11] = test system: OVCAR-5
[12] = test system: SN12C
[13] = test system: HCT-116
[14] = test system: SR
[15] = test system: UACC-62
[16] = test system: U-251
[17] = test system: BT-549
[18] = test system: KM12
[19] = test system: UACC-257
[20] = test system: HCT-15
[21] = test system: MDA-N
[22] = test system: M14
[23] = test system: Hs-578T
[24] = test system: SF-295
[25] = test system: SF-539
[26] = test system: HL-60
[27] = test system: LOX IMVI
[28] = test system: PC-3
[29] = test system: NCI-H226
[30] = test system: A498
[31] = test system: NCI-H522
[32] = test system: SK-OV-3
[33] = test system: OVCAR-8
[34] = test system: OVCAR-3
[35] = test system: MCF7
[36] = test system: 786-0
[37] = test system: RXF 393
[38] = test system: SK-MEL-2
[39] = test system: MDA-MB-231
[40] = test system: OVCAR-4
[41] = test system: ACHN
[42] = test system: UO-31
[43] = test system: TK-10
[44] = test system: Malme-3M
[45] = test system: NCI-H23
[46] = test system: HT-29
[47] = test system: HOP-92
[48] = test system: CCRF-CEM
[49] = test system: SK-MEL-5
[50] = test system: SW-620
[51] = test system: MDA-MB-435
[52] = test system: SK-MEL-28
[53] = test system: T47D
[54] = test system: SNB-19
[55] = test system: HCC 2998
[56] = test system: A549

Q: `C=C1CC(OC(C)=O)/C=C(/C)CCC(C(C)(C)O)CC1O` (stereo unspecified) was tested. Which GI50 [1] did it give?
A: > 100 µM (inactive)

Q: What about the GI50 [2] of the same molecule?
A: > 100 µM (inactive)

Q: And the GI50 [3]?
A: > 100 µM (inactive)

Q: What about the GI50 [4] of the same molecule?
A: > 100 µM (inactive)

Q: And the GI50 [5]?
A: > 100 µM (inactive)

Q: What about the GI50 [6] of the same molecule?
A: > 100 µM (inactive)

Q: And the GI50 [7]?
A: > 100 µM (inactive)

Q: What about the GI50 [8] of the same molecule?
A: > 100 µM (inactive)

Q: What about the GI50 [9] of the same molecule?
A: > 100 µM (inactive)

Q: And the GI50 [10]?
A: > 100 µM (inactive)

Q: And the GI50 [11]?
A: > 100 µM (inactive)

Q: What about the GI50 [12] of the same molecule?
A: > 100 µM (inactive)

Q: What about the GI50 [13] of the same molecule?
A: > 100 µM (inactive)

Q: What about the GI50 [14] of the same molecule?
A: > 100 µM (inactive)

Q: What about the GI50 [15] of the same molecule?
A: > 100 µM (inactive)

Q: What about the GI50 [16] of the same molecule?
A: > 100 µM (inactive)

Q: And the GI50 [17]?
A: > 100 µM (inactive)

Q: And the GI50 [18]?
A: > 100 µM (inactive)

Q: And the GI50 [19]?
A: > 100 µM (inactive)

Q: What about the GI50 [20] of the same molecule?
A: > 100 µM

Q: What about the GI50 [21] of the same molecule?
A: > 100 µM (inactive)

Q: And the GI50 [22]?
A: > 100 µM (inactive)

Q: What about the GI50 [23] of the same molecule?
A: > 100 µM (inactive)

Q: What about the GI50 [24] of the same molecule?
A: > 100 µM (inactive)

Q: What about the GI50 [25] of the same molecule?
A: > 100 µM (inactive)

Q: What about the GI50 [26] of the same molecule?
A: > 100 µM (inactive)

Q: And the GI50 [27]?
A: > 100 µM (inactive)

Q: What about the GI50 [28] of the same molecule?
A: > 100 µM (inactive)

Q: And the GI50 [29]?
A: > 100 µM (inactive)

Q: And the GI50 [30]?
A: > 100 µM (inactive)

Q: And the GI50 [31]?
A: > 100 µM (inactive)

Q: What about the GI50 [32] of the same molecule?
A: > 100 µM (inactive)

Q: And the GI50 [33]?
A: > 100 µM (inactive)

Q: What about the GI50 [34] of the same molecule?
A: > 100 µM (inactive)

Q: What about the GI50 [35] of the same molecule?
A: > 100 µM (inactive)

Q: And the GI50 [36]?
A: > 100 µM (inactive)

Q: And the GI50 [37]?
A: > 100 µM (inactive)

Q: What about the GI50 [38] of the same molecule?
A: > 100 µM (inactive)

Q: And the GI50 [39]?
A: > 100 µM (inactive)

Q: And the GI50 [40]?
A: > 100 µM (inactive)

Q: What about the GI50 [41] of the same molecule?
A: > 100 µM (inactive)

Q: And the GI50 [42]?
A: > 100 µM (inactive)

Q: And the GI50 [43]?
A: > 100 µM (inactive)

Q: What about the GI50 [44] of the same molecule?
A: > 100 µM (inactive)

Q: What about the GI50 [45] of the same molecule?
A: > 100 µM (inactive)

Q: And the GI50 [46]?
A: > 100 µM (inactive)

Q: What about the GI50 [47] of the same molecule?
A: > 100 µM (inactive)

Q: What about the GI50 [48] of the same molecule?
A: > 100 µM (inactive)

Q: What about the GI50 [49] of the same molecule?
A: > 100 µM (inactive)

Q: And the GI50 [50]?
A: > 100 µM (inactive)

Q: What about the GI50 [51] of the same molecule?
A: > 100 µM (inactive)

Q: What about the GI50 [52] of the same molecule?
A: > 100 µM (inactive)

Q: And the GI50 [53]?
A: > 100 µM (inactive)

Q: What about the GI50 [54] of the same molecule?
A: > 100 µM (inactive)

Q: And the GI50 [55]?
A: > 100 µM (inactive)

Q: And the GI50 [56]?
A: > 100 µM (inactive)

Source: ChEMBL document CHEMBL1201862, “PubChem BioAssay data set” (2004)
